In assay [1] the test system is Green Peach Aphid (Myzus persicae, MYZUPE). Kind of assay: Bioassay 1: Green Peach Aphid, foliar spray on infested cabbage seedlings, live aphids counted three days after treatment. The format is in vivo. As for the experimental part: Bioassay 1: Green Peach Aphid (Myzus persicae, MYZUPE) (“GPA”).
The stock solutions were prepared with Formula One as well as for each of the active ingredients individually. Test solutions were prepared from the stock solutions. Test solutions were prepared containing Formula One, the individual active ingredients, and mixtures of Formula One with each of the active ingredients. The test solutions for Formula One and the individual active ingredients were prepared by adding 750 microliters (μL) of stock solution to a 25 mL glass vial, then adding 750 μL of 1:1 acetone: methanol solvent, followed by the addition of 13.5 ml water with 0.025% Tween®) 20 to create a 0.0005% (weight/volume (w/v)) solution. The test solutions containing mixtures of Formula One and the individual active ingredients were prepared by adding 750 μL of the active ingredient stock solution to a 25 mL glass vial, followed by 750 μL of the Formula One stock solution, then by the addition of 13.5 mL water with 0.025% Tween®) 20 to create a test solution containing 0.0005% (w/v) Formula One and 0.0005% (w/v) of the active ingredient. Each test solution was serially diluted to create desired doses of test solutions (0.0005% (w/v), 0.000125% (w/v), 0.00003125% (w/v), 0.0000078% (w/v), 0.00000195% (w/v), and 0.0000005% (w/v)).
The test solutions were tested against GPA using the following procedure: Cabbage seedlings, grown in 3-inch pots with 2-3 small (3-5 centimeter (cm)) true leaves, were used as test substrate. The seedlings were infested with 20-50 GPA (wingless adult and nymph stages) one day prior to chemical application. Four pots with individual seedlings were used for each treatment. A hand-held aspirator-type sprayer was used for spraying a solution to both sides of […] leaves until runoff. Reference plants (solvent check) were sprayed with the diluent only (0.025% Tween®) 20 and 10% acetone:methanol (1:1) in water). Treated plants were held in a holding room for three days at approximately 25° C. and ambient relative humidity (RH about 20% to about 45%) prior to grading. Evaluation was conducted by counting the number of live aphids per plant under a microscope three days after treatment. Percent control was measured using Abbott's correction formula (W. S. Abbott, J. Econ. Entomol. 18 (1925), pp. 265-267) as follows:
where X=No. of live aphids on solvent check plants and Y=No. of live aphids on treated plants. In Table B1 the “Expected % Control” was calculated using the method described in Colby S. R., Weeds, 1967, 15, 20-22. Bioassay 2: Sweet Potato Whitefly (Bemisia tabaci, BEMITA) (“SPW”).

Assay [2] relates to Western Tarnished Plant Bug (Lygus hesperus, LYGUHE). Nature of the assay: Bioassay 4: Western Tarnished Plant Bug, soaked green bean segments, living nymphs 3 days after application. The format is in vivo. Here is the method:
where X=No. of live nymphs on solvent check leaf discs and Y=No. of live nymphs on treated leaf discs. In Table B3 the “Expected % Control” was calculated using the method described in Colby S. R., Weeds, 1967, 15, 20-22. Bioassay 4: Western Tarnished Plant Bug (Lygus hesperus, LYGUHE) (“WTPB”).
Stock solutions were prepared with Formula One as well as for each of the active ingredients individually. Test solutions were prepared from the stock solutions. Test solutions were prepared containing Formula One, the individual active ingredients, and mixtures of Formula One with each of the active ingredients. The test solution for Formula One was prepared by adding 500 μL of the stock solution to a 25 mL glass vial, then adding 500 μL of acetone, followed by the addition of 9 mL water with 0.025% Tween®) 20 to create a 0.04% (w/v) solution. The test solutions of the individual active ingredients were prepared by adding 500 μL of stock solution to a 25 mL glass vial, then adding 500 μL of acetone, followed by the addition of 9 mL water with 0.025% Tween®) 20 to create a 0.005% (w/v) solution. The test solutions containing mixtures of Formula One and the individual active ingredients were prepared by adding 500 μL of the active ingredient stock solution to a 25 mL glass vial, followed by 500 μL of the Formula One stock solution, then by the addition of 9 mL water with 0.025% Tween®) 20 to create a test solution containing 0.04% (w/v) Formula One and 0.005% (w/v) of the active ingredient. Each test solution was serially diluted to create desired doses of test solutions (0.005% (w/v), 0.00125% (w/v), 0.0003125% (w/v), 0.000078% (w/v), and 0.0000195% (w/v)). In test solutions containing mixtures of Formula One and the active ingredients, the active ingredients were diluted as described above, but the Concentration of Formula One was held constant (0.04% (w/v)).
The test solutions were tested against WTPB using the following procedure: Fresh green beans were cut into segments approximately 1.5 inches long. Four bean segments were added to each 25 mL vial containing the test solutions and soaked for approximately 15 minutes. After soaking, a single bean fragment was removed and placed into a single well of a 32-well rearing tray (Frontier Agricultural Sciences™), on top of a round filter paper disc. A reference treatment (solvent check) was treated with the diluent only. Each treatment was replicated four times and the test treatments were held at approximately 26° C. and ambient relative humidity (RH) prior to grading. Bean segments were allowed to air dry for ˜30 minutes. Three WTPB nymphs were added to and contained in each well with a clear perforated adhesive lid. The total number of living WTPB nymphs was recorded 3 days after application. Scoring was based off the total number of living nymphs out of all four replicates. Percent control was measured using Abbott's correction formula (W. S. Abbott, J. Econ. Entomol. 18 (1925), pp. 265-267) as follows:
X=No. of live nymphs on solvent check and Y=No. of live nymphs on treated bean segments. In Table B4 the “Expected % Control” was calculated using the method described in Colby S. R., Weeds, 1967, 15, 20-22. Bioassay 5: Neotropical Brown Stink Bug (Euschistus heros, EUSCHE) (“BSB”).

The text below walks through data of US20250338846A1, “COMPOSITIONS HAVING PESTICIDAL UTILITY AND PROCESSES RELATED THERETO” (CORTEVA AGRISCIENCE, LLC, priority 2022, published 2025).

Values joined by “and” are separate entries in the source; they are usually repeats but may differ in a detail not shown here. Equal values may be shown once.

For the molecule Emamectin Benzoate, the “Average % Control AI” value in assay [1] (AI alone 3.125 (10^-5) % w/v) stood at 21%.

On to `CON=CNC(=O)c1ccc(C2=NOC(c3cc(Cl)cc(Cl)c3)(C(F)(F)F)C2)cc1C` (stereo not drawn) [Fluxametamide], for which, in assay [1] (AI alone 12.5 (10^-5) % w/v), the “Average % Control AI” value was determined as 0%.

Take `CC[S+]([O-])c1c(C#N)nn(-c2c(Cl)cc(C(F)(F)F)cc2Cl)c1N` (stereo not drawn) [Ethiprole]: in assay [1] (AI alone 3.125 (10^-5) % w/v), the “Average % Control AI” value worked out at 0%.

As for `CC1(C)[C@H](C(=O)O[C@H](C#N)c2cccc(Oc3ccccc3)c2)[C@@H]1/C=C(\Cl)C(F)(F)F` (racemic) [Lambda Cyhalothrin], the “Average % Control AI” value is listed as 0% in assay [2] (AI alone 0.000078 % w/v) and 40% in assay [1] (AI alone 0.78 (10^-5) % w/v).

Regarding `CCN(C(=O)CCS(C)(=O)=O)c1sc(-c2cccnc2)nc1Cl` [Formula F1, N-(4-chloro-2-(pyridin-3-yl)thiazol-5-yl)-N-ethyl-3-(methylsulfonyl)propanamide], the “Average % Control F1” value in assay [1] (F1 alone 0.05 (10^-5) % w/v) is 29%; in assay [1] (F1 alone 0.195 (10^-5) % w/v) it was 13%; in assay [1] (F1 alone 0.78 (10^-5) % w/v), 28%; in assay [1] (F1 alone 3.125 (10^-5) % w/v), 30% and 35%; in assay [1] (F1 alone 12.5 (10^-5) % w/v), 39%.

Turning to `CN1COCN(Cc2cnc(Cl)s2)/C1=N\[N+](=O)[O-]` [Thiamethoxam], the “Average % Control AI” value in assay [2] (AI alone 0.0003125 % w/v) stood at 65%.

As for `O=[N+]([O-])NC1=NCCN1Cc1ccc(Cl)nc1` [Imidacloprid], in assay [2] (AI alone 0.00125 % w/v), the “Average % Control AI” value turned out to be 13%.

`Cc1c(COC(=O)[C@@H]2[C@H](/C=C(\Cl)C(F)(F)F)C2(C)C)cccc1-c1ccccc1` (racemic) [Bifenthrin]: the entries for the “Average % Control AI” value in assay [2] (AI alone 0.00125 % w/v) and in assay [1] (AI alone 0.78 (10^-5) % w/v) were 17% and 52%, respectively.

As for Abamectin, the “Average % Control AI” value in assay [2] (AI alone 0.00125 % w/v) is given as 0%.

With `C/C(=N\C#N)N(C)Cc1ccc(Cl)nc1` [Acetamiprid], the entries for the “Average % Control AI” value in assay [2] (AI alone 0.00125 % w/v) and in assay [1] (AI alone 0.78 (10^-5) % w/v) were 0% and 24%, respectively.

In the case of `COP(=O)(NC(C)=O)SC` (stereo not drawn) [Acephate], the “Average % Control AI” value in assay [2] (AI alone 0.005 % w/v) was determined as 0%.
